For `Cc1cccc(Nc2ccccc2C(=O)O)c1`, the logP (in general, a log measure of how a compound divides between an organic and an aqueous phase) is 4.74.

As for `CC(=O)Oc1cccc(O)c1`, the logP turned out to be 1.26.

With `Cc1ccc(C(=O)O)cc1`, the log partition coefficient (logP) amounted to 2.43.

Turning to `O=C1CCC(=O)N1c1cc(Cl)c(Cl)c(Cl)c1`, the logP amounted to 2.92.

As to `O=C(c1ccccc1)c1ccc(O)cc1`, the logP came to 2.91.

Molecule `O=C(O)c1cccc(Br)c1` gave a logP of 2.83.

The molecule `Oc1cccc(C(F)(F)F)c1` came in with a logP of 2.61.

Turning to `O=C1CCC(=O)N1c1cc(Br)cc(Br)c1`, the logP turned out to be 2.12.

The molecule `O=C1CCC(=O)N1c1cc(Cl)cc(Cl)c1` showed a logP of 1.88.

The molecule `CCCc1cccc(N2C(=O)CCC2=O)c1` displayed a logP of 1.52.

Regarding `O=C1CCC(=O)N1c1ccc(C(F)(F)F)cc1`, the logP amounted to 1.3.

In turn, `O=C1CCC(=O)N1c1cc(C(F)(F)F)cc(C(F)(F)F)c1` came in with a logP of 2.25.

Regarding `O=C1CCC(=O)N1c1cc(Cl)cc(Cl)c1Cl`, the lipophilicity (logP) was determined as 2.44.

`O=C(O)c1ccccc1Nc1cccc([N+](=O)[O-])c1` registered a logP of 4.42.

`N#Cc1ccc(C(=O)O)cc1` showed a logP of 1.55.

In turn, `O=C1CC(c2cccc(C(F)(F)F)c2)C(=O)N1` (stereo not drawn) returned a logP of 1.35.

In the case of `O=C(O)c1cccc(F)c1`, the logP was 2.05.

Take `Cc1cc(C)cc(N2C(=O)CCC2=O)c1`: the logP came out at 1.16.

For the origin of these results see the SangsterLogP compilation.
